Experiments:
Format in all cases: cell-based
[1] = tested on: Pseudomonas aeruginosa isolates; test: Susceptibility of Pseudomonas aeruginosa urine isolates to antibiotics by the classical method VITEK2; settings: Pseudomonas aeruginosa isolates from urine of UTI patients, 121 isolates studied
Excerpt: (§1) The present inventors studied 1005 different bacterial isolates derived directly from urine samples of UTIs patients, as follows:
These isolates were identified at a species level as well as their known susceptibility to most common used antibiotics, using the classical methods MALDI-TOF and VITEK2, respectively. […]

[2] = tested on: E. coli isolates; test: Susceptibility of E. coli urine isolates to antibiotics by the classical method VITEK2; parameters: key to Bacterial susceptibility category label: sensitive (S); resistant (R); settings: for R (number of isolates resistant to the antibiotic) / S (number of isolates sensitive to the antibiotic): E. coli isolates from urine of UTI patients, 567 isolates studied
Excerpt: as §1
(§2) These isolates were identified at a species level as well as their known susceptibility to most common used antibiotics, using the classical methods MALDI-TOF and VITEK2, respectively.
The samples where then processed for spectrometric measurements, by purifying the infecting bacteria directly from the urine as described herein above. A subset consisting of ten E. coli isolates was randomly selected, as detailed in table 1.

[3] = tested on: Klebsiella pneumonia isolates; test: Susceptibility of Klebsiella pneumonia urine isolates to antibiotics by the classical method VITEK2; settings: Klebsiella pneumonia isolates from urine of UTI patients, 220 isolates studied
Excerpt: as §1, §2
FIGS. 7A-7B present the average second derivative IR spectra of Klebsiella pneumonia, in the 900-1800 cm^−1 region grouped as sensitive of resistant to: Amoxicillin (panel a), Ceftazidime (panel c), Ceftriaxone (panel e) and Cefuroxime (panel g). The ROC curves of the classification of these antibiotics are respectively presented in panels (b), (d), (f) and (h). […] The performances of the RF classifier for the classification between Klebsiella pneumonia isolates sensitive and resistant to the tested antibiotics are summarized in Table 4 similar to E. coli (Table 3).

Compound	R (number of isolates resistant to the antibiotic) [1]	S (number of isolates sensitive to the antibiotic) [1]	R (number of isolates resistant to the antibiotic) [2]	S (number of isolates sensitive to the antibiotic) [2]	R (number of isolates resistant to the antibiotic) [3]	S (number of isolates sensitive to the antibiotic) [3]	Bacterial susceptibility category label ([2]; E. coli isolate 306358)	Bacterial susceptibility category label ([2]; E. coli isolate 306365)	Bacterial susceptibility category label ([2]; E. coli isolate 306366)	Bacterial susceptibility category label ([2]; E. coli isolate 306382)	Bacterial susceptibility category label ([2]; E. coli isolate 307201)	Bacterial susceptibility category label ([2]; E. coli isolate 307212)	Bacterial susceptibility category label ([2]; E. coli isolate 307234)	Bacterial susceptibility category label ([2]; E. coli isolate 307368)	Bacterial susceptibility category label ([2]; E. coli isolate 307395)	Bacterial susceptibility category label ([2]; E. coli isolate 307402)
C[C@@H](O)[C@H]1C(=O)N2C(C(=O)O)=C(S[C@@H]3CN[C@H](C(=O)N(C)C)C3)[C@H](C)[C@H]12 [Meropenem]	20	77														
O=C1CN(/N=C/c2ccc([N+](=O)[O-])o2)C(=O)N1 [Nitrofurantoin]			47	502	150	62										
CC1(C)S[C@@H]2[C@H](NC(=O)[C@H](N)c3ccc(O)cc3)C(=O)N2[C@H]1C(=O)O [Amoxicillin]			170	397	61	159										
CC1(C)S[C@@H]2[C@H](NC(=O)[C@H](N)c3ccccc3)C(=O)N2[C@H]1C(=O)O [Ampicillin]			384	181			S	R	R	S	R	S	R	S	R	R
CC1=C(C(=O)O)N2C(=O)[C@@H](NC(=O)[C@H](N)c3ccccc3)[C@H]2SC1 [Cephalexin]			167	372	90	121										
NC[C@H]1O[C@H](O[C@H]2[C@H](O)[C@@H](O[C@H]3O[C@H](CO)[C@@H](O)[C@H](N)[C@H]3O)[C@H](N)C[C@@H]2N)[C@H](N)C[C@@H]1O [Tobramycin]	15	79														
Gentamicin	17	80	68	498	41	179										
CO/N=C(\C(=O)N[C@@H]1C(=O)N2C(C(=O)O)=C(COC(N)=O)CS[C@H]12)c1ccco1 [Cefuroxime]			196	371	99	121	S	S	R	S	S	S	S	S	S	S
CO/N=C(\C(=O)N[C@@H]1C(=O)N2C(C(=O)OC(C)OC(C)=O)=C(COC(N)=O)CS[C@H]12)c1ccco1 (stereo partly drawn) [Cefuroxime-Axetil]			190	351	95	112										
CO/N=C(\C(=O)N[C@@H]1C(=O)N2C(C(=O)O)=C(CSc3nc(=O)c(=O)[nH]n3C)CS[C@H]12)c1csc(N)n1 [Ceftriaxone]			160	407	87	133	S	S	R	S	S	S	S	S	S	S
CCN1CCN(C(=O)N[C@@H](C(=O)N[C@@H]2C(=O)N3[C@@H]2SC(C)(C)[C@@H]3C(=O)O)c2ccccc2)C(=O)C1=O [Piperacillin]	23	59														
C[C@H]1COc2c(N3CCN(C)CC3)c(F)cc3c(=O)c(C(=O)O)cn1c23 [Levofloxacin]	33	63														
Piperacill-Tazobactam	10	76	58	506	41	179										
C[C@@H](O)[C@H]1C(=O)N2C(C(=O)O)=C(SCCN=CN)C[C@H]12 [Imipenem]	18	72														
CC(C)(O/N=C(\C(=O)N[C@@H]1C(=O)N2C(C(=O)[O-])=C(C[n+]3ccccc3)CS[C@H]12)c1csc(N)n1)C(=O)O [Ceftazidime]	19	78	159	408	91	129										
Sulfamethoxa-Trimeth			194	371	92	126	S	R	S	S	R	R	R	S	R	S
Amoxicillin ClavulA							S			S	S	S	S	S	S	

Reference: US20230386662A1, “RAPID AND DIRECT IDENTIFICATION AND DETERMINATION OF URINE BACTERIAL SUSCEPTIBILITY TO ANTIBIOTICS” (B. G. NEGEV TECHNOLOGIES AND APPLICATIONS LTD., AT …, priority 2020, published 2023)
